The subject of data set [1] is mouse collagen-induced arthritis model. In words: Mice collagen-induced arthritis model. Conditions: 3 mg/kg, positive control, 17 days; FIG. 11. It is filed as in vivo, DBA/1 mice. The procedure: The test was carried out in accordance with the method described in Non-Patent Literature (Brand D D, et al., Nat Protoc. 2007; 2, 1269-1275, Xu D. et al., JPET, 2012 April; 341 (1):90-103). Seven-week-old male/DBA/1 mice (CHARLES RIVER LABORATORIES JAPAN, INC.) were intracutaneously injected in the dorsum with 100 μL/body of an equal amount-mixed solution (emulsion) of 4 mg/mL of bovine type 2 collagen solution (Collagen Research Center) and Complete Freund's Adjuvant (DIFCO Inc.) (initial immunization). After 21 days therefrom, the mice were intracutaneously injected in the chine with 100 μL/body of an equal amount-mixed solution (emulsion) of 4 mg/mL of bovine type 2 collagen solution (Collagen Research Center) and Complete Freund's Adjuvant (DIFCO) to provide an additional immunization. The oral administration of 1 time per day was continued for 17 days setting the administration initiation day (day 0) as the eighth day from the additional immunization. Symptoms of arthritis in day 0, day 3, day 7, day 10, day 14 and day 17 were scored macroscopically (0: No change, 1: Swelling of a finger, 2: Swelling of two fingers or more, 3: Swelling of instep, 4: Swelling of all fingers extending wrist/ankle), and a total in four limbs was obtained as a point of individual body (maximum 16 points).

The nature of data set [2]: Solid stability test (severe test), 60° C. The data set is classed as physicochemical. Conditions: 60° C. (Sealed). The procedure:
Solid stability was measured under the following conditions, with respect to monofumarate of Compound A, hemitartrate of Compound A and monophosphate of Compound A which were obtained in the Examples and the Reference Examples, when they were stored for 2 weeks or 4 weeks at 60° C.
Storage condition: 60° C. (Sealed)
Point of measurement: 2 weeks and 4 weeks
(§1) Storage amount: About 30 mg
(§2) Storage container: Brown glass container
(§3) Method of preparing sample solution: Sample was dissolved in 50% acetonitrile such that a concentration of the sample would be 0.4 mg/mL.
In the Table, A and B refer to percentages of the total mass of analogous substance of less than 0.1%, and 0.1% or more and less than 0.5%, respectively. Incidentally, the value marked with * was measured at 2 weeks and the others were measured at 4 weeks.

Data set [3] can be described thus: Moisture absorption/desorption test. The data set is classed as physicochemical. Conditions: for characteristic of channel hydrate: absorb/desorb moisture depending on humidity; for weight change at a maximum: humidified at a relative humidity of from 5 to 95%; for Weight change ratio, Adsorption / Weight change ratio, Desorption: 25° C. The procedure: Moisture absorption/desorption test was carried out with respect to Compound A, monofumarate of Compound A, hemifumarate of Compound A, hemitartrate of Compound A and monophosphate of Compound A, to research the presence or absence of the characteristic of channel hydrate.
In the moisture absorption/desorption test, measurements were carried out according to the following conditions.
A dedicated quartz holder was filled with about from 5 to 10 mg of sample, and a weight of the sample at each humidity was measured and recorded in a continuous manner under the following conditions. Handling of the devices including data processing was based on the method and the process indicated in each device.
Device: VTI SA+ (manufactured by TA Instruments Inc.)
Drying temperature: 60° C.
Temperature rising speed: 1° C./min.
Equilibrium in drying: It is confirmed that no reduction of 0.01 wt % occurs in 5 minutes, in a range not exceeding 300 minutes.
Temperature for measurement: 25° C.
Equilibrium in humidification: It is confirmed that no increase of 0.01 wt % occurs in 5 minutes, in a range not exceeding 120 minutes.
Relative humidity program: Raised by 5% RH from 5% RH to 95% RH, and lowered by 5% RH from 95% RH to 5% RH.

The nature of data set [4]: Solid stability test (acceleration test), 40° C./75% RH. It is filed as physicochemical. The procedure: Solid stability was measured under the following conditions, with respect to monofumarate of Compound A, hemifumarate of Compound A, hemitartrate of Compound A and monophosphate of Compound A which were obtained in the Examples and the Reference Examples, when they were stored for 2 weeks or 4 weeks at 40° C./75% RH (sealed condition and opened condition).
Storage condition: 40° C./75% RH (Sealed and Opened) (Opened refers to a condition where a glass container has the lid removed, and is covered with a KimWipe).
Points of measurement: 2 weeks and 4 weeks
as §1, §2, §3
Mass of analogous substance in the sample solution was measured by HPLC analysis. Handling of the devices including data processing was based on the method and the process indicated in each device. (Device: Shimadzu Corporation SIL-HTc/LC-20AB)
Column: InertSustein C18, 4.6×150 mm, 3 μm, manufactured by GL Sciences Inc.
MS detection: ESI positive
Column temperature: 40° C.
Column flow rate: 1.0 mL/min
Mobile phase: A; 10 mmol/L phosphate buffer (pH 6.0): Acetonitrile mixed solution (17:3), B; Acetonitrile
Amount of injection: 5 μL
In the Table, A, B and C refer to percentages of the total mass of analogous substance of less than 0.1%, 0.1% or more and less than 0.5%, and 0.5% or more, respectively. Incidentally, those marked with * were measured at 2 weeks' time and the others were measured at 4 weeks' time.

The next data set is described as follows: in vivo. Conditions: Balb/cA, mouse, po, 50 mg/kg.
Data set [5] can be described thus: Blood concentration measurement test after oral administration. Conditions: mice.
Method: (§4) These administration solutions were orally administered to mice (Balb/cA) which had been bred under a feeding condition, at a dose of 10 mL per 1 kg body weight, with a sonde for oral administration. After the administration, the mice were returned to a cage for mice and conditions were checked. Inside the cage was provided with a condition where water and food were accessible ad libitum. After 0.25, 0.5, 1, 2, 4 and 6 hours from the administration, the mice were anesthetized with isoflurane, and 60 μL of blood was collected from orbital sinus with a capillary blood collection tube.
(§5) The collected blood was ice cooled, and blood plasma was separated by a centrifugal operation. The mice after the blood collection was returned to an animal breeding cage, and conditions after recovery from the anesthesia were checked. When the last blood collection was finished, the mice were euthanized by cervical dislocation, after a level check of isoflurane anesthesia.
(§6) AUC0-6 hr, Cmax and Tmax were calculated by linear-log trapezoid method with Phoenix WinNonlin (v6.3.0) which is a software manufactured by Pharsight Corporation, from a concentration of Compound A in each blood plasma measured by MRM method with LC-MS/MS.
Where [6] appears, read: 50 mg/kg in terms of Compound A, 0.5% HPMC suspension, plasma Compound A.

Method for in vivo: as §4, §5, §6

As to `C[C@]12C=CC(=O)C=C1CC[C@@H]1[C@@H]2[C@@H](O)C[C@@]2(C)[C@H]1CC[C@]2(O)C(=O)CO` [prednisolone, reference compound], the arthritis score result in data set [1] is given as “only in a degree of maintaining the raised arthritis score”.

Turning to `C=CC(=O)N1CCC[C@@H](n2nc(C(=O)Nc3nc4ccccc4o3)c3c(N)ncnc32)C1.C=CC(=O)N1CCC[C@@H](n2nc(C(=O)Nc3nc4ccccc4o3)c3c(N)ncnc32)C1.O=C(O)C(O)C(O)C(=O)O` [hemitartrate of Compound A, (R)-1-(1-acryloylpiperidin-3-yl)-4-amino-N-(benzo[d]oxazol-2-yl)-1H-pyrazolo[3,4-d]pyrimidine-3-carboxamide.hemi-L-(+)-tartrate], the “total mass of analogous substance” value is “B (0.1% or more and less than 0.5%)” in data set [2] (4 weeks); “B (0.1% or more and less than 0.5%)” in data set [4] (Opened, 4 weeks); “B (0.1% or more and less than 0.5%)” in data set [4] (Sealed, 4 weeks). The “characteristic of channel hydrate” value in data set [3] is “had the characteristic of channel hydrate”. In data set [3], the “weight change at a maximum” value is on record as “about 3.3%”. Also, the “Weight change ratio, Adsorption” value in data set [3] (relative humidity 5%) worked out at 0.01%; in data set [3] (relative humidity 20%), 1.25%; in data set [3] (relative humidity 40%), 1.56%; in data set [3] (relative humidity 60%), 1.67%; in data set [3] (relative humidity 80%) it was 1.64%; in data set [3] (relative humidity 95%) it was 3.31%. Moreover, the “Weight change ratio, Desorption” value is listed as −0.28% in data set [3] (relative humidity 5%); 1.17% in data set [3] (relative humidity 20%); 1.32% in data set [3] (relative humidity 40%); 1.45% in data set [3] (relative humidity 60%); 1.72% in data set [3] (relative humidity 80%); 3.31% in data set [3] (relative humidity 95%).

Consider `C=CC(=O)N1CCC[C@@H](n2nc(C(=O)Nc3nc4ccccc4o3)c3c(N)ncnc32)C1` [Compound A, (R)-1-(1-acryloylpiperidin-3-yl)-4-amino-N-(benzo[d]oxazol-2-yl)-1H-pyrazolo[3,4-d]pyrimidine-3-carboxamide], for which, in “in vivo”, the AUC(0-t) (as a rule, exposure summed from dosing to a finite time, without extrapolation to infinity) is 5.45 µM·h. For the same compound, the peak level in “in vivo” (Cmax) was 3.98 µM. Further, the Tmax (usually the time from dosing to the highest level) in “in vivo” came to 15 min. Moreover, the “characteristic of channel hydrate” value in data set [3] was “had the characteristic of channel hydrate”. In data set [3], the “weight change at a maximum” value is reported as “about 4.4%”. The “Weight change ratio, Adsorption” value in data set [3] (relative humidity 5%) stood at 0.42%; in data set [3] (relative humidity 20%), 3.08%; in data set [3] (relative humidity 40%) it was 3.60%; in data set [3] (relative humidity 60%) it was 3.88%; in data set [3] (relative humidity 80%), 4.09%; in data set [3] (relative humidity 95%), 4.39%. The “Weight change ratio, Desorption” value was 0.67% in data set [3] (relative humidity 5%); 3.20% in data set [3] (relative humidity 20%); 3.65% in data set [3] (relative humidity 40%); 3.88% in data set [3] (relative humidity 60%); 4.11% in data set [3] (relative humidity 80%); 4.39% in data set [3] (relative humidity 95%).

As to `C=CC(=O)N1CCC[C@@H](n2nc(C(=O)Nc3nc4ccccc4o3)c3c(N)ncnc32)C1.O=P(O)(O)O` [monophosphate of Compound A, (R)-1-(1-acryloylpiperidin-3-yl)-4-amino-N-(benzo[d]oxazol-2-yl)-1H-pyrazolo[3,4-d]pyrimidine-3-carboxamide.monophosphate], the “total mass of analogous substance” value in data set [2] (2 weeks (marked *)) is “B* (0.1% or more and less than 0.5%)”; in data set [4] (Opened, 2 weeks (marked *)) it was “C* (0.5% or more)”; in data set [4] (Sealed, 2 weeks (marked *)), “C* (0.5% or more)”. For the same compound, the “crystal form after the moisture absorption/desorption test” value in data set [3] is reported as “did not maintain the original crystal form”. In addition, the “Weight change ratio, Adsorption” value in data set [3] (relative humidity 5%) came out at 0.01%; in data set [3] (relative humidity 20%), 0.19%; in data set [3] (relative humidity 40%) it was 0.36%; in data set [3] (relative humidity 60%), 0.61%; in data set [3] (relative humidity 80%), 1.29%; in data set [3] (relative humidity 95%) it was 17.90%. The “Weight change ratio, Desorption” value in data set [3] (relative humidity 5%) came out at 5.76%; in data set [3] (relative humidity 20%) it was 8.06%; in data set [3] (relative humidity 40%) it was 9.29%; in data set [3] (relative humidity 60%), 10.38%; in data set [3] (relative humidity 80%), 12.12%; in data set [3] (relative humidity 95%) it was 17.90%.

Take `C=CC(=O)N1CCC[C@@H](n2nc(C(=O)Nc3nc4ccccc4o3)c3c(N)ncnc32)C1.C=CC(=O)N1CCC[C@@H](n2nc(C(=O)Nc3nc4ccccc4o3)c3c(N)ncnc32)C1.O=C(O)/C=C/C(=O)O` [hemifumarate of Compound A, (R)-1-(1-acryloylpiperidin-3-yl)-4-amino-N-(benzo[d]oxazol-2-yl)-1H-pyrazolo[3,4-d]pyrimidine-3-carboxamide.hemifumarate]: in data set [5] (50 mg/kg), the “AUC0-6 hr relative to that of Compound A” value is listed as “about two fold”. In addition, in data set [5] (50 mg/kg), the “Cmax relative to that of Compound A” value is listed as “equivalent to that of Compound A”. Further, in data set [5] (setting [6]), the AUC0-6 hr came out at 10.32 µM·h. For the same compound, the Cmax (in general, the peak of the concentration-time curve) in data set [5] (setting [6]) came to 4.22 µM. The Tmax in data set [5] (setting [6]) worked out at 30 min. Besides, the “Weight change ratio, Adsorption” value in data set [3] (relative humidity 5%) was 0.00%; in data set [3] (relative humidity 20%), 0.07%; in data set [3] (relative humidity 40%), 0.16%; in data set [3] (relative humidity 60%) it was 0.28%; in data set [3] (relative humidity 80%), 0.42%; in data set [3] (relative humidity 95%), 0.81%. Moreover, the “Weight change ratio, Desorption” value in data set [3] (relative humidity 5%) turned out to be 0.04%; in data set [3] (relative humidity 20%) it was 0.11%; in data set [3] (relative humidity 40%), 0.23%; in data set [3] (relative humidity 60%), 0.40%; in data set [3] (relative humidity 80%), 0.54%; in data set [3] (relative humidity 95%), 0.81%. The “mass change (increase)” value in data set [3] (relative humidity of 95%) is given as “less than 1%”. Moreover, the “total mass of analogous substance” value in data set [4] (Opened, 4 weeks) is reported as “A (less than 0.1%)”; in data set [4] (Sealed, 4 weeks), “A (less than 0.1%)”. In addition, in data set [4] (compared to hemitartrate or monophosphate), the “solid stability (in words)” value is recorded as “excellent solid stabilities”.

Source of the values: patent US10280174B2, “Salt of fused pyrimidine compound and crystal thereof” (TAIHO PHARMACEUTICAL CO., LTD., priority 2015, dated 2019).
